Laboratory results: PubChem BioAssay (NCI)
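Following 48 hours of exposure in 96-well plates, responses at five concentrations were used to interpolate endpoints linearly. GI50 = concentration required for 50% inhibition of growth. TGI: concentration producing complete growth inhibition.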

Assays:
Assay in all cases: DTP human tumour cell line panel, 48 h
[1] = tested on: SK-MEL-2 melanoma
[2] = tested on: MALME-3M melanoma
[3] = tested on: RXF 393 renal
[4] = tested on: SK-MEL-5 melanoma
[5] = tested on: U251 CNS
[6] = tested on: SNB-75 CNS
[7] = tested on: A498 renal
[8] = tested on: BT-549 breast

| Structure (SMILES) | GI50 [1] [µM] | TGI [1] [µM] | GI50 [2] [µM] | TGI [2] [µM] | GI50 [3] [µM] | TGI [3] [µM] | GI50 [4] [µM] | TGI [4] [µM] | GI50 [5] [µM] | TGI [5] [µM] | GI50 [6] [µM] | TGI [6] [µM] | GI50 [7] [µM] | TGI [7] [µM] | GI50 [8] [µM] | TGI [8] [µM] |
| --- | --- | --- | --- | --- | --- | --- | --- | --- | --- | --- | --- | --- | --- | --- | --- | --- |
| COc1ccc2c(c1)/C(=C\c1c(-c3ccccc3)nc3sccn13)C(=O)N2 | 18 | 44.5 | 39.7 | 97.1 | 2.69 | 21.4 | 6.06 | 21.3 | 5.88 | 27.9 | 7.16 | 23.5 | 0.63 | 5.11 | 3 | 13.9 |
| COc1ccc(OC)c(-c2cc(-c3ccc(Cl)cc3)nn2-c2ccccc2)c1 | > 100 | > 100 |  |  |  |  | 42.2 | > 100 |  |  |  |  | 6.57 | 59.7 | 28.8 | 84.4 |
| CCCCCCCC(=O)Nc1nc2[nH]c(CN3CCN(Cc4cccc(I)c4)CC3)c(CN3CCN(Cc4cccc(I)c4)CC3)c2c(=O)[nH]1 | 0.97 | 2.05 | 0.866 | 1.7 | 0.78 | 1.49 | 0.973 | 1.9 | 0.923 | 1.8 | 0.691 | 1.35 | 0.8 | 1.62 | 0.885 | 1.83 |
| CC(=O)CCc1ccc(Oc2c3ccccc3nc3occc23)cc1 |  |  |  |  | 14 | 39.1 |  |  | 13.5 | 33.8 | 22.4 | 61 | 15.8 | 29.2 |  |  |
| CO[C@H]1/C=C/O[C@@]2(C)Oc3c(C)c(O)c4c(O)c(c(/C=N/N5C(C)CN(Cc6ccc(C#N)cc6)CC5C)c(O)c4c3C2=O)NC(=O)/C(C)=C\C=C\[C@H](C)[C@H](O)[C@@H](C)[C@@H](O)[C@@H](C)[C@H](OC(C)=O)[C@@H]1C (stereo partly drawn) | 7.92 | 15.9 | 8.56 | 20.5 | 8.88 | 19.4 | 5.91 | 12.3 | 6.04 | 12.2 | 7.25 | 18.5 | 7.06 | 14 | 8.85 | 23.5 |
| O=C(Nc1ccc(Cl)cc1)c1cc(NCc2cc(O)ccc2O)ccc1O | 12.2 | 27.3 | 4.34 | 16.8 | 2.24 | 5.31 | 6.12 | 20 | 3.96 | 13.4 | 1.99 | 8.99 | 17.1 | 47.1 | 1.42 | 3.57 |
| CCOc1ccc(Nc2ccnc3cc(Cl)ccc23)cc1 | > 100 | > 100 | > 100 | > 100 | 72.3 | > 100 | > 100 | > 100 | > 100 | > 100 | 17 | 51.2 | 2.61 | > 100 | > 100 | > 100 |
| O=C(N/N=C/c1ccc([N+](=O)[O-])cc1)c1ccccc1Nc1ccnc(C(F)(F)F)c1 |  |  | 10.7 | 33.6 | 15.4 | 42.8 | 19.1 | 42.3 | 16.6 | > 100 | 18.2 | 70.3 | 10.5 | 43.7 |  |  |
